Assay [1] concerns HCC1954 cells (with PI3Kα H1047R mutation). In words: In vitro inhibition of HCC1954 cell proliferation (CellTiter-Lumi). It is filed as cell-based. The method, then:
Assay for In Vitro Inhibition of HCC1954 Cell Proliferation by Compounds of the Present Disclosure
The growth of the cells was evaluated, and the IC50 for the inhibition of cell growth by the compounds was calculated.

Assay [2] has as its system MCF-7 cells (with PI3Kα E545K mutation). The experiment in a line: In vitro inhibition of MCF-7 cell proliferation (CellTiter-Lumi). The assay is classed as cell-based. The method, then: Biological Example 3. Assay for In Vitro Inhibition of MCF-7 Cell Proliferation by Compounds of the Present Disclosure
MCF-7 cells (with PI3Kα E545K mutation) were seeded into a 384-well plate (Fisher 142762) at 2000 cells per well. The next day, serially diluted compounds were added, and 144 h after the addition, CellTiter-Lumi (Beyotime C0068XL) was added to measure the ATP content in the cells. The growth of the cells was evaluated, and the IC50 for the inhibition of cell growth by the compounds was calculated.

[3] abbreviates: Homo sapiens, HCC1954, 144 h, HCC1954 cells, 144 h, CellTiter-Lumi, class symbols, read-out: Inhibitory activity against HCC1954 cells (IC50), class symbols.
[4] abbreviates: Homo sapiens, MCF7, 144 h, class symbols, read-out: Inhibitory activity against MCF-7 cells (IC50), class symbols.
The mark [5] stands for this setting: Homo sapiens, HCC1954, 144 h, HCC1954 cells, 144 h, CellTiter-Lumi, numeric values, read-out: Inhibitory activity against HCC1954 cells (IC50).
Where [6] appears, read: Homo sapiens, MCF7, 144 h, numeric values, read-out: Inhibitory activity against MCF-7 cells (IC50).

Where two headings read alike, the source gives them in different places. Where only a bound is given, the exact number is not on record here.

As a reminder, the IC50 is the concentration that inhibits the measured activity by half. Turning to `CC(C)(C=C(C#N)C(=O)Nc1ncc(N2CC(N3CCN(c4ccc5c(c4)-c4nc(N6C(=O)OC[C@H]6C(F)F)cn4CCO5)CC3)C2)cn1)NC1COC1` [Compound 293], the IC50 in assay [1] (setting [3]) and in assay [2] (setting [4]) was below 50 nM each time.

Take `CC(C)(C=C(C#N)C(=O)Nc1ccc(N2CC(N3CCN(c4ccc5c(c4)-c4nc(N6C(=O)OC[C@H]6C(F)F)cn4CCO5)CC3)C2)cc1)NCOP(=O)(OCOC(=O)C(C)(C)C)OCOC(=O)C(C)(C)C` [Compound 333]: the IC50 in assay [1] (setting [3]) and in assay [2] (setting [4]) was below 50 nM in each case.

For the compound `C=CC(=O)Nc1ccc(N2CC(N3CC=C(c4ccc5c(c4)-c4nc(N6C(=O)OC[C@H]6C(F)F)cn4CCO5)CC3)C2)cc1` [Compound 103], the IC50 was found to be 23 nM in assay [1] (setting [5]) and 2 nM in assay [2] (setting [6]).

For `CC(C)(C=C(C#N)C(=O)Nc1ccc(N2CC(N3CCN(c4ccc5c(c4)-c4nc(N6C(=O)OC[C@H]6C(F)F)cn4CCO5)CC3)C2)cc1)N1CCN(C2COC2)CC1` [Compound 304], the IC50 in assay [1] (setting [3]) and in assay [2] (setting [4]) was below 50 nM in each case.

On to `C=CC(=O)Nc1ncc(N2CC(N3CCN(c4ccc5c(c4)-c4nc(N6C(=O)OC[C@H]6C(F)F)cn4CCO5)CC3)C2)cc1C` [Compound 163], for which the IC50 was 6.6 nM in assay [1] (setting [5]) and 0.5 nM in assay [2] (setting [6]).

In the case of `C=CC(=O)Nc1ccc(N2CC(N3CCN(c4ccc5c(c4)-c4nc(-c6nc(C)nn6C(C)C)cn4CCO5)CC3)C2)nc1` [Compound 379], the half-maximal inhibitory concentration (IC50) in assay [1] (setting [3]) and in assay [2] (setting [4]) was below 50 nM each time.

Turning to `CC(C)(C)C=C(C#N)C(=O)Nc1ccc(N2CC(N3CCN(c4cc5c(cc4F)OCCn4cc(N6C(=O)OC[C@H]6C(F)F)nc4-5)CC3)C2)cc1` [Compound 315], the IC50 in assay [1] (setting [3]) and in assay [2] (setting [4]) was below 50 nM throughout.

Take `CC(C)(C=C(C#N)C(=O)Nc1ccc(N2CC(N3CCN(c4ccc5c(c4)-c4nc(N6C(=O)OC[C@H]6C(F)F)cn4CCO5)CC3)C2)c(F)c1)N1CCC1` [Compound 229]: the IC50 in assay [1] (setting [3]) and in assay [2] (setting [4]) was below 50 nM in each case.

As to `N#CC(=CC1CC1)C(=O)Nc1cnc(N2CC(N3CCN(c4ccc5c(c4)-c4nc(N6C(=O)OC[C@H]6C(F)F)cn4CCO5)CC3)C2)nc1` [Compound 263], the IC50 in assay [1] (setting [3]) and in assay [2] (setting [4]) was below 50 nM in each case.

Regarding `CNC(C)(C)C=C(C#N)C(=O)Nc1cc(N2CC(N3CCN(c4ccc5c(c4)-c4nc(N6C(=O)OC[C@H]6C(F)F)cn4CCO5)CC3)C2)n(C)n1` [Compound 219], the concentration for half-maximal inhibition (IC50) in assay [1] (setting [3]) and in assay [2] (setting [4]) was below 50 nM throughout.

For `CC(C)(C)C=C(C#N)C(=O)Nc1ccc(N2CC(N3CCN(c4ccc5c(c4)-c4nc(N6C(=O)OC[C@H]6C(F)F)cn4CCO5)CC3)C2)cc1Cl` [Compound 364], the IC50 in assay [1] (setting [3]) and in assay [2] (setting [4]) was below 50 nM throughout.

Consider `C=CC(=O)Nc1ccc(CN2CCN(c3ccc4c(c3)-c3nc(N5C(=O)OC[C@H]5C(F)F)cn3CCO4)CC2)cc1` [Compound 44], for which the IC50 in assay [1] (setting [5]) was found to be 644 nM; in assay [2] (setting [6]), 151 nM.

Take `CNC(C)(C)C=C(C#N)C(=O)Nc1ccc(N2CC(N3CCN(c4ccc5c(c4)-c4nc(N6C(=O)OC[C@H]6C(F)F)cn4CCO5)CC3)C2)nc1` [Compound 243]: the IC50 in assay [1] (setting [3]) and in assay [2] (setting [4]) was below 50 nM throughout.

In the case of `CCOP(=O)(OCC)OCNC(C)(C)C=C(C#N)C(=O)Nc1ccc(N2CC(N3CCN(c4ccc5c(c4)-c4nc(N6C(=O)OC[C@H]6C(F)F)cn4CCO5)CC3)C2)cc1` [Compound 331], the IC50 in assay [1] (Homo sapiens, HCC1954, 144 h, read-out: Inhibitory activity against HCC1954 cells (IC50), class symbols) is below 50 nM; in assay [2] (setting [4]) it was below 50 nM.

In the case of `CC=C(C#N)C(=O)Nc1ccc(N2CC(N3CCN(c4ccc5c(c4)-c4nc(N6C(=O)OC[C@H]6C(F)F)cn4CCO5)CC3)C2)cc1` [Compound 187], the IC50 in assay [1] (setting [3]) and in assay [2] (setting [4]) was below 50 nM throughout.

Regarding `C=CC(=O)Nc1ncc(N2CC(N3CCN(c4ccc5c(c4)-c4nc(N6C(=O)OC[C@H]6C(F)F)cn4CCO5)CC3)C2)cn1` [Compound 162], the IC50 amounted to 3.4 nM in assay [1] (setting [5]) and 0.4 nM in assay [2] (setting [6]).

Take `CN(C)CC#CC(=O)Nc1ccc(N2CC(N3CCN(c4ccc5c(c4)-c4nc(N6C(=O)OC[C@H]6C(F)F)cn4CCO5)CC3)C2)cc1` [Compound 153]: the IC50 in assay [1] (setting [5]) is 10 nM; in assay [2] (setting [6]), 0.8 nM.

On to `CNC/C=C/C(=O)Nc1ccc(N2CC(N3CCN(c4ccc5c(c4)-c4nc(N6C(=O)OC[C@H]6C(F)F)cn4CCO5)CC3)C2)cc1` [Compound 186], for which the IC50 was 32 nM in assay [1] (setting [5]) and 4.3 nM in assay [2] (setting [6]).

With `CC(=O)NC(C)(C)C=C(C#N)C(=O)Nc1ccc(N2CC(N3CCN(c4ccc5c(c4)-c4nc(N6C(=O)OC[C@H]6C(F)F)cn4CCO5)CC3)C2)cc1Cl` [Compound 366], the IC50 in assay [1] (setting [3]) and in assay [2] (setting [4]) was below 50 nM in each case.

Take `Cc1nc(-c2cn3c(n2)-c2cc(N4CCN(C5CN(c6ccc(NC(=O)C(C#N)=CC(C)(C)NC(=O)OC(C)(C)C)cc6)C5)CC4)ccc2OCC3)n(C(C)C)n1` [Compound 338]: the IC50 in assay [1] (setting [3]) and in assay [2] (setting [4]) was below 50 nM each time.

As to `CC(C)=CC(=O)CCC(=O)N1CCC(C#Cc2ccc3c(c2)-c2nc(N4C(=O)OC[C@H]4C(F)F)cn2CCO3)CC1` [Compound 191], the IC50 is 50 to 100 nM in assay [1] (setting [3]) and below 50 nM in assay [2] (setting [4]).

With `C=CC(=O)N1CCC(CN2CC3(CCN(c4ccc5c(c4)-c4nc(N6C(=O)OC[C@H]6C(F)F)cn4CCO5)CC3)C2)CC1` [Compound 24], the 50% inhibitory concentration (IC50) was above 1000 nM in assay [1] (setting [5]) and 1120 nM in assay [2] (setting [6]).

Take `C=CC(=O)N1CCn2nc(N3CC(N4CCN(c5ccc6c(c5)-c5nc(N7C(=O)OC[C@H]7C(F)F)cn5CCO6)CC4)C3)cc2C1` [Compound 164]: the half-maximal inhibitory concentration (IC50) was found to be 53 nM in assay [1] (setting [5]) and 3 nM in assay [2] (setting [6]).

Take `COCCNC(C)(C)C=C(C#N)C(=O)Nc1ncc(N2CC(N3CCN(c4ccc5c(c4)-c4nc(N6C(=O)OC[C@H]6C(F)F)cn4CCO5)CC3)C2)cn1` [Compound 302]: the 50% inhibitory concentration (IC50) in assay [1] (setting [3]) and in assay [2] (setting [4]) was below 50 nM in each case.

For `CC(C)=CC(=O)CCCC(=O)N1CCC(/C=C/c2ccc3c(c2)-c2nc(N4C(=O)OC[C@H]4C(F)F)cn2CCO3)CC1` [Compound 189], the IC50 in assay [1] (setting [3]) was 50 to 100 nM; in assay [2] (setting [4]), below 50 nM.

Turning to `CC(C)C=C(C#N)C(=O)Nc1ccc(N2CC(N3CCN(c4ccc5c(c4)-c4nc(N6C(=O)OC[C@H]6C(F)F)cn4CCO5)CC3)C2)cc1` [Compound 144], the 50% inhibitory concentration (IC50) came to 55 nM in assay [1] (setting [5]) and 22 nM in assay [2] (setting [6]).

Consider `C/C=C/C(=O)Nc1ccc(N2CC(N3CCN(c4ccc5c(c4)-c4nc(N6C(=O)OC[C@H]6C(F)F)cn4CCO5)CC3)C2)cc1` [Compound 101], for which the results for the IC50 in assay [1] (setting [5]) and in assay [2] (setting [6]) were 83 nM and 38 nM, respectively.

Regarding `C=CC(=O)N1CCC(N2CC[C@H](CN3CCN(c4ccc5c(c4)-c4nc(N6C(=O)OC[C@H]6C(F)F)cn4CCO5)CC3)C2)CC1` [Compound 59], the 50% inhibitory concentration (IC50) in assay [1] (setting [5]) came to 872 nM; in assay [2] (setting [6]), 197 nM.

Turning to `N#CC(=CC1(N)CCC1)C(=O)Nc1ccc(N2CC(N3CCN(c4ccc5c(c4)-c4nc(N6C(=O)OC[C@H]6C(F)F)cn4CCO5)CC3)C2)cc1` [Compound 391], the IC50 in assay [1] (setting [3]) and in assay [2] (setting [4]) was below 50 nM throughout.

On to `CC(C)(C=C(C#N)C(=O)Nc1ccc(N2CC(N3CCN(c4ccc5c(c4)-c4nc(N6C(=O)OC[C@H]6C(F)F)cn4CCO5)CC3)C2)nc1)NC1COC1` [Compound 239], for which the IC50 in assay [1] (setting [3]) and in assay [2] (setting [4]) was below 50 nM each time.

Consider `CC(C)(C=C(C#N)C(=O)Nc1ccc(N2CC(N3CCN(c4ccc5c(c4)-c4nc(N6C(=O)OC[C@H]6C(F)F)cn4CCO5)CC3)C2)nc1)N1CCOCC1` [Compound 240], for which the concentration for half-maximal inhibition (IC50) in assay [1] (setting [3]) and in assay [2] (setting [4]) was below 50 nM throughout.

Turning to `CC(C)(C=C(C#N)C(=O)Nc1ccc(N2CC(N3CCN(c4ccc5c(c4)-c4nc(N6C(=O)OC[C@H]6C(F)F)cn4CCO5)CC3)C2)cc1)NC(=O)OC(C)(C)C` [Compound 324A], the IC50 is 0.1 nM in assay [1] (HCC1954 cells, 144 h, CellTiter-Lumi, numeric values, read-out: Inhibitory activity against HCC1954 cells (IC50)) and 0.1 nM in assay [2] (144 h, numeric values, read-out: Inhibitory activity against MCF-7 cells (IC50)).

In the case of `C=CC(=O)Nc1ccc(N2CC(N3CCN(c4ccc5c(c4)-c4nc(N6C(=O)OC[C@H]6C(F)F)cn4CCO5)CC3)C2)c(F)c1` [Compound 123], the IC50 in assay [1] (setting [5]) was found to be 5.3 nM; in assay [2] (setting [6]), 0.9 nM.

In the case of `CC(=O)NC(C)(C)C=C(C#N)C(=O)Nc1ccc(N2CC(N3CCN(c4ccc5c(c4)-c4nc(N6C(=O)OC[C@H]6C(F)F)cn4CCO5)CC3)C2)nc1` [Compound 348], the IC50 in assay [1] (setting [3]) and in assay [2] (setting [4]) was below 50 nM each time.

With `CC(C)(C=C(C#N)C(=O)Nc1ccc(N2CC(N3CCN(c4ccc5c(c4)-c4nc(N6C(=O)OC[C@H]6C(F)F)cn4CCO5)CC3)C2)cc1)OCOP(=O)(OCOC(=O)C(C)(C)C)OCOC(=O)C(C)(C)C` [Compound 343], the IC50 in assay [1] (setting [3]) and in assay [2] (setting [4]) was below 50 nM throughout.

With `CC(C)(C)C=C(C#N)C(=O)Nc1ccc(N2CC(N3CCN(c4cc(F)c5c(c4)-c4nc(N6C(=O)OC[C@H]6C(F)F)cn4CCO5)CC3)C2)cc1` [Compound 316], the IC50 in assay [1] (setting [3]) and in assay [2] (setting [4]) was below 50 nM throughout.

For the compound `COC(C)(C)C=C(C#N)C(=O)Nc1cnc(N2CC(N3CCN(c4ccc5c(c4)-c4nc(N6C(=O)OC[C@H]6C(F)F)cn4CCO5)CC3)C2)nc1` [Compound 267], the IC50 in assay [1] (setting [3]) and in assay [2] (setting [4]) was below 50 nM each time.

The values are drawn from patent publication US20260193268A1, “TRICYCLIC PI3Ka INHIBITOR, PREPARATION METHOD THEREFOR, AND PHARMACEUTICAL USE THEREOF” (WIGEN BIOMEDICINE TECHNOLOGY (SHANGHAI) CO., LTD., priority 2022, published 2026).
